From the supplement of paper PMC13380429

Tests used:
Settings in all cases: 72 h
[1] = system: U2OS; assay: relative viability EC50 (midpoint between 100% and the lowest measured viability); higher = less toxic
[2] = system: Calu-3; assay: as above
[3] = system: Vero E6; assay: as above
[4] = system: Caco-2; assay: as above
[5] = system: HepG2; assay: as above
[6] = system: U2OS; assay: cell viability relative to DMSO; higher = less toxic
[7] = system: Calu-3; assay: as above
[8] = system: Vero E6; assay: as above
[9] = system: Caco-2; assay: as above
[10] = system: HepG2; assay: as above
[11] = system: U2OS; assay: drug sensitivity score (DSS) for viability; higher = more toxic; extreme values may be limits of the assay
[12] = system: Calu-3; assay: as above
[13] = system: Vero E6; assay: as above
[14] = system: Caco-2; assay: as above
[15] = system: HepG2; assay: as above

| SMILES | relative viability EC50 [1] [µM] | relative viability EC50 [2] [µM] | relative viability EC50 [3] [µM] | relative viability EC50 [4] [µM] | relative viability EC50 [5] [µM] | cell viability ([6]; 1 nM) [%] | cell viability ([6]; 10 nM) [%] | cell viability ([6]; 100 nM) [%] | cell viability ([6]; 1000 nM) [%] | cell viability ([6]; 10000 nM) [%] | cell viability ([7]; 1 nM) [%] | cell viability ([7]; 10 nM) [%] | cell viability ([7]; 100 nM) [%] | cell viability ([7]; 1000 nM) [%] | cell viability ([7]; 10000 nM) [%] | cell viability ([8]; 1 nM) [%] | cell viability ([8]; 10 nM) [%] | cell viability ([8]; 100 nM) [%] | cell viability ([8]; 1000 nM) [%] | cell viability ([8]; 10000 nM) [%] | cell viability ([9]; 1 nM) [%] | cell viability ([9]; 10 nM) [%] | cell viability ([9]; 100 nM) [%] | cell viability ([9]; 1000 nM) [%] | cell viability ([9]; 10000 nM) [%] | cell viability ([10]; 1 nM) [%] | cell viability ([10]; 10 nM) [%] | cell viability ([10]; 100 nM) [%] | cell viability ([10]; 1000 nM) [%] | cell viability ([10]; 10000 nM) [%] | drug sensitivity score [11] | drug sensitivity score [12] | drug sensitivity score [13] | drug sensitivity score [14] | drug sensitivity score [15] |
| --- | --- | --- | --- | --- | --- | --- | --- | --- | --- | --- | --- | --- | --- | --- | --- | --- | --- | --- | --- | --- | --- | --- | --- | --- | --- | --- | --- | --- | --- | --- | --- | --- | --- | --- | --- |
| NC1=NC(=O)N([C@H]2C[C@H](O)[C@@H](CO)O2)CN1 [KP-1212] | > 10 | > 10 | > 10 | > 10 | > 10 | 92.6 | 102 | 95.5 | 99.7 | 103 | 93.3 | 90.5 | 94.3 | 98.9 | 98.8 | 99.8 | 98.7 | 97.9 | 92.1 | 105 | 89.9 | 104 | 89 | 103 | 99.8 | 99.1 | 95 | 100 | 98.3 | 93.9 | 0 | 0 | 0 | 0 | 0 |
| CC(=O)N[C@@H](Cc1c[nH]c2ccccc12)C(=O)OCc1cc(C(F)(F)F)cc(C(F)(F)F)c1 [L-732,138] | > 10 | > 10 | > 10 | > 10 | > 10 | 96.7 | 94.7 | 97.4 | 94.4 | 99.2 | 95.4 | 102 | 92.6 | 103 | 102 | 89.1 | 97.3 | 86.3 | 95.3 | 109 | 91.7 | 92.8 | 96.4 | 97.5 | 92.8 | 91.1 | 106 | 105 | 104 | 105 | 0 | 0 | 0 | 0 | 0 |
| CN(C)C(=O)CCSC(SCCC(=O)O)c1cccc(/C=C/c2ccc3ccc(Cl)cc3n2)c1 (stereo not given) [MK-571] | > 10 | > 10 | > 10 | > 10 | > 10 | 102 | 101 | 97.2 | 94.3 | 101 | 101 | 97.5 | 101 | 101 | 104 | 98.4 | 93.5 | 99.6 | 99.1 | 91.5 | 97.8 | 92.2 | 95 | 92.6 | 95.2 | 102 | 106 | 97.7 | 108 | 95.7 | 0 | 0 | 0 | 0 | 0 |
| C#CCN1C(C)=C(C(=O)OC)C(c2cccc([N+](=O)[O-])c2)C(C(=O)OCC)=C1C (stereo not given) [MRS-1845] | > 10 | > 10 | > 10 | > 10 | > 10 | 107 | 97.8 | 105 | 100 | 97.2 | 99.5 | 91.3 | 95.6 | 98.3 | 90.6 | 94.1 | 99.6 | 98 | 99.3 | 99 | 92 | 98.1 | 96.9 | 88.6 | 85.4 | 95.2 | 105 | 91.3 | 106 | 95.7 | 0 | 0 | 0 | 0.3 | 0 |
| CC(=O)NCC(=O)N[C@H](CCC(=O)O)C(=O)O [N-acetylglycyl-D-glutamic-acid] | > 10 | > 10 | > 10 | > 10 | > 10 | 102 | 102 | 97.7 | 102 | 99.4 | 94.5 | 106 | 98 | 93 | 95.7 | 109 | 99.9 | 103 | 97 | 99.6 | 91.3 | 104 | 93 | 103 | 101 | 110 | 95.7 | 98.6 | 102 | 100 | 0 | 0 | 0 | 0 | 0 |
| c1ccc2sc(SN3CCOCC3)nc2c1 [N-oxydiethylenebenzothiazole-2-sulfenamide] | > 10 | > 10 | > 10 | > 10 | > 10 | 96.9 | 105 | 94.1 | 99.1 | 102 | 104 | 101 | 97.4 | 83.3 | 110 | 97 | 94.5 | 99.6 | 104 | 112 | 86.7 | 92.6 | 92.5 | 92.5 | 93.8 | 101 | 97.1 | 98.9 | 115 | 111 | 0 | 0 | 0 | 0 | 0 |
| CC1(C)Oc2ccc(C#N)cc2[C@@H](OC2=CC(=O)CC2)[C@@H]1O [PCO-400] | > 10 | > 10 | > 10 | > 10 | > 10 | 107 | 95.8 | 98.8 | 90.6 | 99.8 | 96.6 | 95.9 | 110 | 102 | 103 | 102 | 97.3 | 97.7 | 102 | 94.6 | 113 | 90.5 | 99.6 | 92.8 | 103 | 101 | 97 | 109 | 105 | 86.9 | 0 | 0 | 0 | 0 | 0 |
| CCCC(=O)C1CCN(c2ncnc3c2CN(C(=O)c2ccc(-c4ccccc4)cc2)CC3)CC1 [PK-THPP] | > 10 | > 10 | > 10 | > 10 | > 10 | 106 | 98.9 | 103 | 97 | 95.6 | 106 | 101 | 98.9 | 105 | 101 | 102 | 105 | 99.7 | 104 | 98.3 | 105 | 99.8 | 100 | 100 | 75.3 | 98.9 | 99.1 | 91.2 | 94.9 | 93.6 | 0 | 0 | 0 | 0.9 | 0 |
| O=C(OCCN1CCOCC1)C1(c2ccccc2)CCCCC1 [PRE-084] | > 10 | > 10 | > 10 | > 10 | > 10 | 99.3 | 100 | 96.5 | 107 | 97.4 | 101 | 107 | 97.2 | 103 | 93 | 100 | 99.7 | 106 | 102 | 105 | 108 | 102 | 93.9 | 90.8 | 89.1 | 106 | 102 | 95.6 | 108 | 100 | 0 | 0 | 0 | 0.4 | 0 |
| Cc1cc(OCCCS(C)(=O)=O)cc(C)c1-c1cccc(COc2ccc3c(c2)OC[C@H]3CC(=O)O)c1 [TAK-875] | > 10 | > 10 | > 10 | > 10 | > 10 | 95.6 | 98.7 | 96.9 | 96.7 | 94.3 | 98.2 | 105 | 99.8 | 111 | 102 | 100 | 106 | 97.3 | 98.7 | 96.3 | 99.8 | 101 | 89.3 | 85.4 | 77.8 | 93.8 | 97.3 | 95.9 | 94.4 | 96.7 | 0 | 0 | 0 | 2.5 | 0 |
| CN1C/C=C/CCOc2cccc(c2)-c2ccnc(n2)Nc2cccc(c2)C1 [TG-02] | 0.204 | 0.167 | 0.297 | 0.105 | 0.207 | 102 | 101 | 86 | 2.5 | 1.8 | 97.1 | 97.7 | 87.7 | 43.4 | 51.8 | 99.4 | 97.8 | 90 | 13.6 | 5.6 | 89.8 | 88.2 | 70.4 | 28.4 | 38.9 | 111 | 104 | 79.2 | 9.1 | 3.2 | 20 | 12.4 | 17.1 | 16.2 | 19.3 |
| O.O=[Si]=O.O=[Si]=O.O=[Si]=O.O=[Si]=O.[O]=[Mg].[O]=[Mg].[O]=[Mg] [Talc] | > 10 | > 10 | > 10 | > 10 | > 10 | 96.7 | 98.3 | 95.9 | 100 | 95.3 | 87 | 98.1 | 89.8 | 107 | 81.3 | 95.7 | 104 | 103 | 97 | 103 | 97.2 | 102 | 94.7 | 101 | 90 | 106 | 95.1 | 106 | 95.4 | 96.7 | 0 | 0.2 | 0 | 0 | 0 |
| CS(=O)(=O)c1ccc(-c2cnc(N)c(C(=O)Nc3ccccc3)n2)cc1 [VE-821] | > 10 | > 10 | > 10 | > 10 | > 10 | 102 | 95.7 | 96.9 | 93.1 | 91.6 | 99.1 | 94.7 | 102 | 95.1 | 95.3 | 99.1 | 95.7 | 97.1 | 98 | 94 | 102 | 94.8 | 101 | 95.1 | 97.4 | 97.3 | 99.3 | 95 | 98.6 | 84.2 | 0 | 0 | 0 | 0 | 0.4 |
| CCOc1cc(C(=O)N2CCC(N3CCN(C)CC3)CC2)ccc1Nc1ncc2c(n1)N(C1CCCC1)c1ccccc1C(=O)N2C [XMD17-109] | 2.01 | 3.09 | 1.21 | 1.48 | 1.45 | 99.6 | 95.6 | 101 | 89.5 | 28.4 | 104 | 87.2 | 99 | 99 | 4.4 | 94.3 | 97.1 | 94.4 | 62.1 | 8.8 | 96.1 | 104 | 99 | 81.6 | 32 | 101 | 105 | 94.2 | 76.9 | 25.2 | 5.7 | 5.5 | 9.5 | 6.5 | 7.2 |
